Assay results published in patent publication US20070203183A1, “Diaryl piperidines as CB1 modulators” (Schering Corporation, priority 2006, published 2007).
Read-outs that look alike come from different tables or passages of the source.

Biological target: T1, cannabinoid CB1 (Homo sapiens, UniProt P21554)
T1 construct: purchased
Assay: Competition binding assay for cannabinoid CB1 affinity (3H-CP55,940 displacement, membranes)
Method: Method for Evaluating Cannabinoid CB1 and CB2 Affinity
Non-specific binding was defined in the presence of 10 μM CP55,940. For saturation studies, concentrations of ^3H-CP55,940 ranging from 0.1-5 nM were incubated with membranes in the presence and absence of 10 μM CP55,940. Assays were terminated after incubation for 1½ hours by rapid filtration onto 0.3% polyethylenamine treated GF/C filterplates using a BRANDEL cell harvester. The plates were dried and MICROSCINT scintillation cocktail was added, after which the bound radioactivity was quantified using a TOPCOUNT scintillation counter.
The dissociation constant (Kd) of ^3H-CP55,940 at the CB1 and CB2 receptor were determined by plotting specific binding at each concentration of radioligand, and analysis by non-linear regression. For competition studies, the concentration of each drug that inhibited 50 percent of ^3H-CP55,940 binding (IC50) was determined by non-linear regression analysis of the radioligand displacement curves.

[1] = competition with 0.5 nM 3H-CP55,940, Ki by Cheng-Prusoff, approximate values, receptor subtype not given, read-out: Ki values

T1 sequence (P21554 whole entry): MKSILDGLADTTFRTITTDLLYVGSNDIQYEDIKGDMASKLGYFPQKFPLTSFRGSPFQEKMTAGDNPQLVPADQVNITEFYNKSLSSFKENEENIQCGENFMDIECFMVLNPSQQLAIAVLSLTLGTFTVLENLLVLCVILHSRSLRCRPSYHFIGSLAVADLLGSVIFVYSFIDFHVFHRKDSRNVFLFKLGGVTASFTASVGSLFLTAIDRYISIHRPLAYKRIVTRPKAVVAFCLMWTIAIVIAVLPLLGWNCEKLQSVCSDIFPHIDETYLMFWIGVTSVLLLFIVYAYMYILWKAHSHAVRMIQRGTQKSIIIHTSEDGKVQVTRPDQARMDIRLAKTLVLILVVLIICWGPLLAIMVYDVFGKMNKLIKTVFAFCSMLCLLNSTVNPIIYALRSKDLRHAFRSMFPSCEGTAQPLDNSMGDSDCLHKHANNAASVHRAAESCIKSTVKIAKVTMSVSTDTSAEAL

O=S(=O)(NC[C@@H]1CC[C@@H](c2ccc(Cl)cc2Cl)N(c2ccc(Cl)cc2)C1)c1ccccc1 [Example 86] was tested, and the Ki [1] was roughly 9 nM.
N#Cc1ccc(C(=O)NC[C@@H]2CC[C@@H](c3ccc(Cl)cc3Cl)N(c3ccc(Cl)cc3)C2)cc1 [Example 91] was tested, and the Ki was roughly 4 nM.
Work on O=S(=O)(NC[C@@H]1CC[C@@H](c2ccc(Cl)cc2Cl)N(c2ccc(Cl)cc2)C1)c1cc(F)ccc1F [Example 112] yielded a Ki [1] of roughly 2 nM.
O=S(=O)(NC[C@@H]1CC[C@@H](c2ccc(Cl)cc2Cl)N(c2ccc(Cl)cc2)C1)c1cccc(Cl)c1 [Example 120] was tested, and the Ki [1] was roughly 2 nM.
